Results: PubChem BioAssay (NCI)
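Dose response: 5 concentrations. Exposure: 48 h. Format: 96-well plates. Endpoint: linear interpolation; highest concentration if not reached. GI50 is the concentration that inhibits growth by half. TGI is the concentration that stops growth completely.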

Columns and labels:
Test in all cases: DTP human tumour cell line panel, 48 h
A549 NSCLC = system: A549 NSCLC
SK-MEL-2 melanoma = system: SK-MEL-2 melanoma
SW-620 colon = system: SW-620 colon
HOP-62 NSCLC = system: HOP-62 NSCLC
HL-60(TB) leukemia = system: HL-60(TB) leukemia
UO-31 renal = system: UO-31 renal
ACHN renal = system: ACHN renal
SNB-75 CNS = system: SNB-75 CNS
UACC-62 melanoma = system: UACC-62 melanoma
LOX IMVI melanoma = system: LOX IMVI melanoma

| Structure (SMILES) | TGI (A549 NSCLC) [µM] | TGI (SK-MEL-2 melanoma) [µM] | TGI (SW-620 colon) [µM] | TGI (HOP-62 NSCLC) [µM] | TGI (HL-60(TB) leukemia) [µM] | TGI (UO-31 renal) [µM] | TGI (ACHN renal) [µM] | TGI (SNB-75 CNS) [µM] | TGI (UACC-62 melanoma) [µM] | TGI (LOX IMVI melanoma) [µM] | GI50 (A549 NSCLC) [µM] | GI50 (SW-620 colon) [µM] | GI50 (HOP-62 NSCLC) [µM] | GI50 (HL-60(TB) leukemia) [µM] | GI50 (UO-31 renal) [µM] | GI50 (ACHN renal) [µM] | GI50 (SNB-75 CNS) [µM] | GI50 (UACC-62 melanoma) [µM] | GI50 (LOX IMVI melanoma) [µM] | GI50 (SK-MEL-2 melanoma) [µM] |
| --- | --- | --- | --- | --- | --- | --- | --- | --- | --- | --- | --- | --- | --- | --- | --- | --- | --- | --- | --- | --- |
| O=c1[nH]c(=O)n(C2CC(O)C(CS)O2)cc1F (centres undefined) | > 100 | > 100 | > 100 | > 93.8 | > 100 | > 100 | > 92.4 | > 100 | > 100 | > 100 |  |  |  |  |  |  |  |  |  |  |
| COC(=O)C(=O)C(C(=O)C(=O)Nc1ccc(C)cc1C)c1nc2ccccc2[nH]c1=O (centres undefined) | > 100 | > 100 | > 100 | > 100 | > 100 | > 100 | > 100 | 69.2 | > 100 | > 100 |  |  |  |  |  |  |  |  |  |  |
| COc1ccc(-c2cc3c(nn2)-c2ccccc2C3=O)cc1 | > 100 | > 10 | > 100 | > 100 | > 100 | > 100 | > 100 | > 100 | > 100 | > 100 | > 100 | 72.7 | > 100 | > 100 | > 100 | > 100 | > 100 | > 100 | > 100 |  |
| Cn1cc(C2=C(c3cn(C)c4c(N)cccc34)C(=O)NC2=O)c2ccccc21 | > 25 | 11 | > 25 | > 15.2 | 7.28 | 10.5 | > 23.9 | 2.63 | 18.1 | > 25 | 1.39 | 0.905 | 1.25 | 1.05 | 1.1 | 1.34 | 0.352 | 2.48 | 1.94 | 1.56 |
| Cn1cc(-c2csc(-c3cccc(F)c3)n2)c2cccnc21 | 47.4 | 55.2 | 30.5 | 34.5 | 49.9 | 50.6 | 50.7 | > 100 | 27.8 | 27.5 | 20.9 | 16.7 | 18.9 | 14.4 | 15.9 | 18.2 | 35.7 | 13.8 | 14.1 | 23.5 |
| COc1cccc(NCc2nnc(Nc3ccc(Cl)cc3)c3ccccc23)c1 | 9.42 | 3.98 | 8.13 | 8.48 | 13.1 | 5.28 | 24.4 | 5.27 | 5.76 | 4.84 | 1.93 | 2.98 | 2.06 | 3.78 | 0.608 | 1.56 | 0.293 | 1 | 1.11 | 0.708 |
| N#C/C(C(=S)Nc1ccccc1)=C1/NN=C2c3ccccc3C(=O)NN21 | > 100 | 53.8 | > 100 | > 100 | 61.7 | > 100 | > 100 | 43.5 | > 100 | 52.8 | 34 | 28.7 | 44.4 | 22 | 33.4 | 35.5 | 16.6 | 31.5 | 19.9 | 21 |
| Cc1cccc(N2C(=O)C(Cl)=C(Cl)C2=O)c1 | > 100 | > 100 | > 60.7 | > 100 | > 100 | > 100 | > 74.6 | > 100 | > 100 | > 100 |  |  |  |  |  |  |  |  |  |  |
| CSc1nc(NC2OC(COC(C)=O)C(OC(C)=O)C(OC(C)=O)C2OC(C)=O)c2c(OC(C)=O)c(C)c(=O)oc2n1 (centres undefined) | > 100 | > 100 | > 100 | > 100 | > 100 | > 100 | > 100 | > 100 | > 100 | > 100 |  |  |  |  |  |  |  |  |  |  |
| Cc1cc(NS(=O)(=O)c2ccc(NC(=O)c3cccc4c(=O)c5ccccc5[nH]c34)cc2)no1 | > 100 | > 100 | > 100 | 50.6 | 74.6 | 72.8 | > 100 | 85.4 | 66.8 | > 100 |  |  |  |  |  |  |  |  |  |  |
| O=C(CCCSc1nc(-c2ccc(Cl)cc2)cc(-c2ccc(Cl)cc2)n1)NO | 12.4 | 20.4 | 11.5 | 11.9 | 8 | 2.35 | 10.4 | 12 | 3.1 | 1.44 | 1.59 | 0.838 | 0.618 | 1.61 | 0.32 | 0.387 | 2.1 | 0.946 | 0.222 | 4.02 |
